In US11000033B2, “Ketone or oxime compound, and herbicide” (NISSAN CHEMICAL CORPORATION, priority 2014, dated 2021):

Legend:
Type in all cases: in vivo
[1] = test system: Echinochloa oryzacola Vasing.; experiment: Test Example 1: herbicidal activity, application before weed generation in submerged conditions (symbol A); conditions: application herbicide amount 320 g/ha
In short: (§1)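 Compound emulsion was diluted to a set herbicide amount and applied to the water surface on the sowing day, into submerged (4 cm) alluvial-soil pots sown with mixed weed seeds and transplanted 2.5-leaf rice. Pots were held in a 25–30 °C greenhouse, and weeds were scored 0–5 by herbicidal ratio after 3 weeks.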

Monochoria vaginalis [2] = experiment: Test Example 1: herbicidal activity, application before weed generation in submerged conditions (symbol C); conditions: application herbicide amount 320 g/ha
In short: as §1

[3] = test system: Echinochloa oryzacola Vasing.; experiment: Test Example 2: herbicidal activity, application during weed generation in submerged conditions (symbol A); conditions: Table 23; application herbicide amount 320 g/ha; grade 0-5 by criteria of Test Example 1
In short: (§2)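 Seeds sown in flooded alluvial soil (4 cm water) were grown in a 25-30° C greenhouse. At the one- to two-leaf stage, diluted emulsion of compound was applied to the water surface at a predetermined rate. Effect was scored 3 weeks later.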

Scirpus juncoides = experiment: Test Example 2: herbicidal activity, application during weed generation in submerged conditions (symbol B); conditions: Table 23; application herbicide amount 320 g/ha; grade 0-5 by criteria of Test Example 1
In short: as §2

Monochoria vaginalis [4] = experiment: Test Example 2: herbicidal activity, application during weed generation in submerged conditions (symbol C); conditions: Table 23; application herbicide amount 320 g/ha; grade 0-5 by criteria of Test Example 1
In short: as §2

Setaria viridis = experiment: Test Example 4: herbicidal effect by soil treatment (symbol G); conditions: for G: Setaria viridis, herbicidal effect grade: 320 g/ha; for Herbicidal effect grade, G: Setaria viridis: application herbicide amount 320 g/ha
In short: (§3)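 Seeds were sown in sterilized diluvial soil, covered with about 1.5 cm of soil, and the soil surface was sprayed with a water-diluted emulsion of the compound at a predetermined rate. Plants grew in a greenhouse at 25° C. to 30° C.; effects were scored visually 3 weeks after application.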

Abutilon theophrasti = experiment: Test Example 4: herbicidal effect by soil treatment (symbol M); conditions: for M: Abutilon theophrasti, herbicidal effect grade: 320 g/ha; for Herbicidal effect grade, M: Abutilon theophrasti: application herbicide amount 320 g/ha
In short: as §3

corn = experiment: Test Example 4: effect on crop by soil treatment (symbol c); conditions: for c: corn, effect grade on crop: 320 g/ha; for Effect on crop grade, c: corn: application herbicide amount 320 g/ha
In short: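 The test used sterilized diluvial soil. Seed was set down in spots and overlaid with about 1.5 cm of soil before growth in a greenhouse kept at 25° C. to 30° C.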

wheat = experiment: Test Example 4: effect on crop by soil treatment (symbol e); conditions: for e: wheat, effect grade on crop: 320 g/ha; for Effect on crop grade, e: wheat: application herbicide amount 320 g/ha
In short: (§4)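 Seeds were sown in spots on sterilized diluvial soil in a plastic box and covered with about 1.5 cm of soil. Plants were then grown in a greenhouse at 25° C. to 30° C.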

beet [5] = experiment: Test Example 4: effect on crop by soil treatment (symbol f); conditions: for f: beet, effect grade on crop: 320 g/ha; for Effect on crop grade, f: beet: application herbicide amount 320 g/ha
In short: as §4

Alopecurus myosuroides = experiment: Test Example 5: herbicidal effect by foliage application, plastic box (symbol J); conditions: 320 g/ha, 3 weeks after application
In short: (§5)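 Sowing in sterilized diluvial soil, 14 days' greenhouse growth at 25° C. to 30° C., then uniform small-sprayer foliar application of aqueous emulsion dilution; plants scored three weeks afterwards.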

Lolium multiflorum Lam. = experiment: Test Example 5: herbicidal effect by foliage application, plastic box (symbol K); conditions: 320 g/ha, 3 weeks after application
In short: as §5

Amaranthus retroflexus = experiment: Test Example 5: herbicidal effect by foliage application, plastic box (symbol N); conditions: 320 g/ha, 3 weeks after application
In short: as §5

Galium spurium = experiment: Test Example 5: herbicidal effect by foliage application, plastic box (symbol Q); conditions: 320 g/ha, 3 weeks after application
In short: as §5

rice plant = experiment: Test Example 5: effect on crop by foliage application, plastic box (symbol b); conditions: 320 g/ha, 3 weeks after application
In short: (§6)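 Crop and weed seeds sown in spots in sterilized diluvial soil in plastic boxes and covered with about 1.5 cm soil. Plants raised in a greenhouse at 25° C. to 30° C. for foliar application.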

beet [6] = experiment: Test Example 5: effect on crop by foliage application, plastic box (symbol f); conditions: 320 g/ha, 3 weeks after application
In short: as §6

## CON=C(C)CC1CC(OC(=O)c2nsc(Cl)c2Cl)=C(c2c(C)cc(C)cc2C)C1=O (centres unmarked) [1-099]
[1]
  Herbicidal effect grade, A: Echinochloa oryzacola Vasing.: 5 (Herbicidal ratio of 90% or more (almost completely withered))
Monochoria vaginalis [2]
  Herbicidal effect grade, C: Monochoria vaginalis: 2 (Herbicidal ratio of 20% or higher and lower than 40%)
[3]
  Herbicidal effect grade, A: Echinochloa oryzacola Vasing.: 4 (Herbicidal ratio of 70% or higher and lower than 90%)
Scirpus juncoides
  Herbicidal effect grade, B: Scirpus juncoides: 4 (Herbicidal ratio of 70% or higher and lower than 90%)
Monochoria vaginalis [4]
  Herbicidal effect grade, C: Monochoria vaginalis: 2 (Herbicidal ratio of 20% or higher and lower than 40%)
Setaria viridis
  G: Setaria viridis, herbicidal effect grade: 5 (Herbicidal ratio of 90% or more (almost completely withered))
Abutilon theophrasti
  M: Abutilon theophrasti, herbicidal effect grade: 5 (Herbicidal ratio of 90% or more (almost completely withered))
corn
  c: corn, effect grade on crop: 5 (Herbicidal ratio of 90% or more (almost completely withered))
wheat
  e: wheat, effect grade on crop: 3 (Herbicidal ratio of 40% or higher and lower than 70%)
Beet [5]
  f: beet, effect grade on crop: 2 (Herbicidal ratio of 20% or higher and lower than 40%)
Alopecurus myosuroides
  J: Alopecurus myosuroides, herbicidal effect (criteria 0-5): 5 (Herbicidal ratio of 90% or more (almost completely withered))
Lolium multiflorum Lam.
  K: Lolium multiflorum Lam., herbicidal effect (criteria 0-5): 5 (Herbicidal ratio of 90% or more (almost completely withered))
Amaranthus retroflexus
  N: Amaranthus retroflexus, herbicidal effect (criteria 0-5): 0 (Herbicidal ratio of 5% or lower (almost no effect))
Galium spurium
  Q: Galium spurium, herbicidal effect (criteria 0-5): 3 (Herbicidal ratio of 40% or higher and lower than 70%)
Rice plant
  b: directly sowed rice plant, effect on crop (criteria 0-5): 5 (Herbicidal ratio of 90% or more (almost completely withered))
Beet [6]
  f: beet, effect on crop (criteria 0-5): 1 (Herbicidal ratio of 5% or higher and lower than 20%)

## CON=C(CC1CC(O)=C(c2c(C)cc(C)cc2C)C1=O)c1ccc(F)cc1 (centres unmarked) [1-133]
[1]
  Herbicidal effect grade, A: Echinochloa oryzacola Vasing.: 4 (Herbicidal ratio of 70% or higher and lower than 90%)
Monochoria vaginalis [2]
  Herbicidal effect grade, C: Monochoria vaginalis: 0 (Herbicidal ratio of 5% or lower (almost no effect))
[3]
  Herbicidal effect grade, A: Echinochloa oryzacola Vasing.: 1 (Herbicidal ratio of 5% or higher and lower than 20%)
Scirpus juncoides
  Herbicidal effect grade, B: Scirpus juncoides: 0 (Herbicidal ratio of 5% or lower (almost no effect))
Monochoria vaginalis [4]
  Herbicidal effect grade, C: Monochoria vaginalis: 0 (Herbicidal ratio of 5% or lower (almost no effect))
Setaria viridis
  G: Setaria viridis, herbicidal effect grade: 4 (Herbicidal ratio of 70% or higher and lower than 90%)
Abutilon theophrasti
  M: Abutilon theophrasti, herbicidal effect grade: 0 (Herbicidal ratio of 5% or lower (almost no effect))
corn
  c: corn, effect grade on crop: 0 (Herbicidal ratio of 5% or lower (almost no effect))
wheat
  e: wheat, effect grade on crop: 0 (Herbicidal ratio of 5% or lower (almost no effect))
Beet [5]
  f: beet, effect grade on crop: 0 (Herbicidal ratio of 5% or lower (almost no effect))
Alopecurus myosuroides
  J: Alopecurus myosuroides, herbicidal effect (criteria 0-5): 4 (Herbicidal ratio of 70% or higher and lower than 90%)
Lolium multiflorum Lam.
  K: Lolium multiflorum Lam., herbicidal effect (criteria 0-5): 5 (Herbicidal ratio of 90% or more (almost completely withered))
Amaranthus retroflexus
  N: Amaranthus retroflexus, herbicidal effect (criteria 0-5): 0 (Herbicidal ratio of 5% or lower (almost no effect))
Galium spurium
  Q: Galium spurium, herbicidal effect (criteria 0-5): 0 (Herbicidal ratio of 5% or lower (almost no effect))
Rice plant
  b: directly sowed rice plant, effect on crop (criteria 0-5): 1 (Herbicidal ratio of 5% or higher and lower than 20%)
Beet [6]
  f: beet, effect on crop (criteria 0-5): 3 (Herbicidal ratio of 40% or higher and lower than 70%)

## COCCON=C(C)CC1CC(O)=C(c2c(C)cc(Br)cc2C)C1=O (centres unmarked) [9-017]
[1]
  A (Echinochloa oryzacola Vasing.) herbicidal effect grade: 4 (Herbicidal ratio of 70% or higher and lower than 90%)
Monochoria vaginalis [2]
  C (Monochoria vaginalis) herbicidal effect grade: 0 (Herbicidal ratio of 5% or lower (almost no effect))
[3]
  Herbicidal effect grade, A: Echinochloa oryzacola Vasing.: 1 (Herbicidal ratio of 5% or higher and lower than 20%)
Scirpus juncoides
  Herbicidal effect grade, B: Scirpus juncoides: 0 (Herbicidal ratio of 5% or lower (almost no effect))
Monochoria vaginalis [4]
  Herbicidal effect grade, C: Monochoria vaginalis: 0 (Herbicidal ratio of 5% or lower (almost no effect))
Setaria viridis
  Herbicidal effect grade, G: Setaria viridis: 0 (Herbicidal ratio of 5% or lower (almost no effect))
Abutilon theophrasti
  Herbicidal effect grade, M: Abutilon theophrasti: 0 (Herbicidal ratio of 5% or lower (almost no effect))
corn
  Effect on crop grade, c: corn: 0 (Herbicidal ratio of 5% or lower (almost no effect))
wheat
  Effect on crop grade, e: wheat: 0 (Herbicidal ratio of 5% or lower (almost no effect))
Beet [5]
  Effect on crop grade, f: beet: 0 (Herbicidal ratio of 5% or lower (almost no effect))
Alopecurus myosuroides
  J: Alopecurus myosuroides, herbicidal effect grade: 3 (Herbicidal ratio of 40% or higher and lower than 70%)
Lolium multiflorum Lam.
  K: Lolium multiflorum Lam., herbicidal effect grade: 5 (Herbicidal ratio of 90% or more (almost completely withered))
Amaranthus retroflexus
  N: Amaranthus retroflexus, herbicidal effect grade: 0 (Herbicidal ratio of 5% or lower (almost no effect))
Galium spurium
  Q: Galium spurium, herbicidal effect grade: 0 (Herbicidal ratio of 5% or lower (almost no effect))
Rice plant
  b: directly sowed rice plant, effect on crop grade: 5 (Herbicidal ratio of 90% or more (almost completely withered))
Beet [6]
  f: beet, effect on crop grade: 0 (Herbicidal ratio of 5% or lower (almost no effect))

## COCCON=C(C)CC1CC(O)=C(c2c(C)cc(-n3cc(Cl)cn3)cc2C)C1=O (centres unmarked) [9-016]
[1]
  A (Echinochloa oryzacola Vasing.) herbicidal effect grade: 5 (Herbicidal ratio of 90% or more (almost completely withered))
Monochoria vaginalis [2]
  C (Monochoria vaginalis) herbicidal effect grade: 2 (Herbicidal ratio of 20% or higher and lower than 40%)
[3]
  Herbicidal effect grade, A: Echinochloa oryzacola Vasing.: 5 (Herbicidal ratio of 90% or more (almost completely withered))
Scirpus juncoides
  Herbicidal effect grade, B: Scirpus juncoides: 4 (Herbicidal ratio of 70% or higher and lower than 90%)
Monochoria vaginalis [4]
  Herbicidal effect grade, C: Monochoria vaginalis: 1 (Herbicidal ratio of 5% or higher and lower than 20%)
Setaria viridis
  Herbicidal effect grade, G: Setaria viridis: 5 (Herbicidal ratio of 90% or more (almost completely withered))
Abutilon theophrasti
  Herbicidal effect grade, M: Abutilon theophrasti: 0 (Herbicidal ratio of 5% or lower (almost no effect))
corn
  Effect on crop grade, c: corn: 3 (Herbicidal ratio of 40% or higher and lower than 70%)
wheat
  Effect on crop grade, e: wheat: 0 (Herbicidal ratio of 5% or lower (almost no effect))
Beet [5]
  Effect on crop grade, f: beet: 0 (Herbicidal ratio of 5% or lower (almost no effect))
Alopecurus myosuroides
  J: Alopecurus myosuroides, herbicidal effect grade: 5 (Herbicidal ratio of 90% or more (almost completely withered))
Lolium multiflorum Lam.
  K: Lolium multiflorum Lam., herbicidal effect grade: 5 (Herbicidal ratio of 90% or more (almost completely withered))
Amaranthus retroflexus
  N: Amaranthus retroflexus, herbicidal effect grade: 0 (Herbicidal ratio of 5% or lower (almost no effect))
Galium spurium
  Q: Galium spurium, herbicidal effect grade: 2 (Herbicidal ratio of 20% or higher and lower than 40%)
Rice plant
  b: directly sowed rice plant, effect on crop grade: 5 (Herbicidal ratio of 90% or more (almost completely withered))
Beet [6]
  f: beet, effect on crop grade: 0 (Herbicidal ratio of 5% or lower (almost no effect))

## CC(CC1CC(OC(=O)COc2ccccc2)=C(c2c(C)cc(-n3cc(Cl)cn3)cc2C)C1=O)=NOCC(F)(F)F (centres unmarked) [9-012]
[1]
  A (Echinochloa oryzacola Vasing.) herbicidal effect grade: 5 (Herbicidal ratio of 90% or more (almost completely withered))
Monochoria vaginalis [2]
  C (Monochoria vaginalis) herbicidal effect grade: 2 (Herbicidal ratio of 20% or higher and lower than 40%)
[3]
  Herbicidal effect grade, A: Echinochloa oryzacola Vasing.: 5 (Herbicidal ratio of 90% or more (almost completely withered))
Scirpus juncoides
  Herbicidal effect grade, B: Scirpus juncoides: 4 (Herbicidal ratio of 70% or higher and lower than 90%)
Monochoria vaginalis [4]
  Herbicidal effect grade, C: Monochoria vaginalis: 2 (Herbicidal ratio of 20% or higher and lower than 40%)
Setaria viridis
  Herbicidal effect grade, G: Setaria viridis: 5 (Herbicidal ratio of 90% or more (almost completely withered))
Abutilon theophrasti
  Herbicidal effect grade, M: Abutilon theophrasti: 0 (Herbicidal ratio of 5% or lower (almost no effect))
corn
  Effect on crop grade, c: corn: 2 (Herbicidal ratio of 20% or higher and lower than 40%)
wheat
  Effect on crop grade, e: wheat: 0 (Herbicidal ratio of 5% or lower (almost no effect))
Beet [5]
  Effect on crop grade, f: beet: 0 (Herbicidal ratio of 5% or lower (almost no effect))
Alopecurus myosuroides
  J: Alopecurus myosuroides, herbicidal effect grade: 5 (Herbicidal ratio of 90% or more (almost completely withered))
Lolium multiflorum Lam.
  K: Lolium multiflorum Lam., herbicidal effect grade: 5 (Herbicidal ratio of 90% or more (almost completely withered))
Amaranthus retroflexus
  N: Amaranthus retroflexus, herbicidal effect grade: 4 (Herbicidal ratio of 70% or higher and lower than 90%)
Galium spurium
  Q: Galium spurium, herbicidal effect grade: 4 (Herbicidal ratio of 70% or higher and lower than 90%)
Rice plant
  b: directly sowed rice plant, effect on crop grade: 5 (Herbicidal ratio of 90% or more (almost completely withered))
Beet [6]
  f: beet, effect on crop grade: 0 (Herbicidal ratio of 5% or lower (almost no effect))
